Assay results from BindingDB's records for doi:10.1021/acsmedchemlett.8b00255 (2018).

Target: T1, Interleukin-23 receptor (Homo sapiens, UniProt Q5VWK5)
T1 sequence (Q5VWK5 whole entry): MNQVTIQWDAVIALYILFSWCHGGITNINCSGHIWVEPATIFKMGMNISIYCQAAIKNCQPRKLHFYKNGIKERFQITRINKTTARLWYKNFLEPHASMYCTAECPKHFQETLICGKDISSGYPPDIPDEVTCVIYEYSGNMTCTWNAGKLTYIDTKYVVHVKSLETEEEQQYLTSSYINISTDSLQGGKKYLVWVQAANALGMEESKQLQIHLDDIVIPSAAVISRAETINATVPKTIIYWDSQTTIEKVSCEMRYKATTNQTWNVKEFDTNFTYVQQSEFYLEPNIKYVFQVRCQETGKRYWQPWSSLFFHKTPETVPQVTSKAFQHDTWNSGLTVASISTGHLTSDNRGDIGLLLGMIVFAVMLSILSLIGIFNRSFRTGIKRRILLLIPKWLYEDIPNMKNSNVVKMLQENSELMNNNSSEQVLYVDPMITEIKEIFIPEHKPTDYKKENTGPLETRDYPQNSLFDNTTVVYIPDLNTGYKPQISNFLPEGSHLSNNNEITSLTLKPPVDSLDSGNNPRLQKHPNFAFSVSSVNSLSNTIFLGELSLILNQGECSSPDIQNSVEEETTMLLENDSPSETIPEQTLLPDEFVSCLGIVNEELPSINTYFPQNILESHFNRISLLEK
Assay: Binding affinity to recombinant human flag/His-tagged IL-23R (1 to 353 residues) expressed in HEK293F cells assessed as dissociation rate constant measured over 90 secs by surface plasmon resonance assay

`CC(=O)N[C@H]1CCSC[C@@H](C(=O)N[C@@H](Cc2ccc(OCCN)cc2)C(=O)N[C@@H](Cc2c[nH]c3ccccc23)C(=O)N[C@@](C)(CCCCN)C(=O)N[C@@H](CCC(=O)O)C(=O)N[C@@H](CC(N)=O)C(=O)NCC(N)=O)NC(=O)[C@H](CCC(N)=O)NC(=O)[C@H](Cc2c[nH]c3ccccc23)NC(=O)[C@H]([C@@H](C)O)NC(=O)[C@H](CCC(N)=O)NC1=O` was tested, and the koff was 0.0274 s⁻¹.
